Test results published in patent US9555038B2, “Heterocycle-substituted tetracyclic compounds and methods of use thereof for the treatment of viral diseases” (Merck Sharp & Dohme Corp., priority 2013, dated 2017).
Read-outs that look alike come from different tables or passages of the source.

Columns and labels:
HCV replicon 1A = test: Cell-based HCV Replicon Assay A, replicon 1A
How it was run: (§1)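 2000 cells/well; 10 serial dilutions, top concentration 333.3 nM to 1.667 nM; 0.5% DMSO, 5% FBS; 3 days; lysis; multiplex TaqMan RT-PCR (NS5B/Neo plus cyclophilin), RNA from linear Ct standard curves.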

HCV replicon 2B = test: Cell-based HCV Replicon Assay A, replicon 2B
How it was run: as §1

HCV replicon 1B = test: Cell-based HCV Replicon Assay B, replicon 1B
Experimental: In an alternate assay (“Replicon Assay B”), 1000 cells were seeded per well in a 384-well collagen coated black plate from Greiner bio-one (Cat #781946) in 5% FBS. Inhibitors of this invention were added at 24 h post-seeding, and the plates were incubated for 3 days. Cells were subsequently lysed with Qiagen lysis buffer (Cat #1062731) to extract the RNA. HCV replicon RNA level was measured by real-time PCR using the RNA-to-CT kit from Applied Biosystem (Cat #4392656) and genotype-specific primers and probes. The amplicon was located within NS5B. The sequence of the PCR primers are as follows: 5B.2F, ATGGACAGGCGCCCTGA (SEQ. ID NO. 1); 5B.2R, […] (SEQ. ID NO. 2); the probe sequence was FAM-labeled CACGCCATGCGCTGCGG (SEQ. ID NO. 3). To detect genotype 1A the primer 1A F, TGCGGAACCGGTGAGTACA and 1A R, […] were used; the probe sequence was FAM-[…].
The real-time RT-PCR reactions were run on ABI PRISM 7900HT or Viia7 Sequence Detection System using the following program: 48° C. for 30 minutes, 95° C. for 10 minutes, 40 cycles of 95° C. for 15 sec, 60° C. for 1 minutes. The 50% effective concentration (EC50) was the drug concentration necessary to achieve an increase in the cycle threshold (CT) of 1 over the projected baseline CT.
Data was obtained for various compounds of the present invention using the methods described in the Example above, and is presented in the table immediately below. Data for replicons 1A, 1AY93H and 2B were obtained using Replicon Assay A and data for replicons 1AQ30D and 1B were obtained using Replicon Assay B.

HCV replicon 1AY93H = test: Cell-based HCV Replicon Assay A, replicon 1AY93H
How it was run: as §1

[1] = read-out: 1A Y93H IC50, replicon 1AY93H
[2] = Hepatitis C virus, read-out: 2B IC50 (nM), replicon 2B
[3] = Hepatitis C virus, read-out: 1A Y93H IC50 (nM), replicon 1AY93H
[4] = replicon 1AY93H, read-out: 1A Y93H IC50

| SMILES | IC50 (HCV replicon 1A) [pM] | IC50 (HCV replicon 2B; read-out: 2B IC50, replicon 2B) [nM] | IC50 (HCV replicon 1B) [pM] | IC50 (HCV replicon 1AY93H; [1]) [nM] | IC50 (HCV replicon 1A; Hepatitis C virus) [pM] | IC50 (HCV replicon 2B; [2]) [nM] | IC50 (HCV replicon 1B; Hepatitis C virus) [pM] | IC50 (HCV replicon 1AY93H; [3]) [nM] | IC50 (HCV replicon 1AY93H; [4]) [nM] | IC50 (HCV replicon 2B; replicon 2B, read-out: 2B IC50) [nM] |
| --- | --- | --- | --- | --- | --- | --- | --- | --- | --- | --- |
| COC(=O)N[C@H](C(=O)N1CCC[C@H]1c1ncc(-c2cc(F)c3c(c2)OC(c2cnc(C4CCOCC4)s2)n2c-3cc3cc(-c4cnc([C@@H]5CCCN5C(=O)[C@@H](NC(=O)OC)C(C)C)[nH]4)ccc32)[nH]1)C(C)C (single isomer, unassigned) [Compound 532] | 1.3 | 1.18 | 3.6 | 1.76 | – | – | – | – | – | – |
| COC(=O)NC(C(=O)N1CCC[C@H]1c1ncc(-c2ccc3c(c2)cc2n3C(c3sc(C(C)C)nc3C)Oc3cc(-c4cnc([C@@H]5CCCN5C(=O)[C@@H](NC(=O)OC)C(C)C)[nH]4)cc(F)c3-2)[nH]1)C1CCOC(C)(C)C1 (single isomer, unassigned) [Compound 434] | – | – | – | – | 2.3 | 0.293 | 3.5 | 0.729 | – | – |
| COC(=O)NC(C(=O)N1CCC[C@H]1c1ncc(-c2ccc3c(c2)cc2n3C(c3sc(C(C)C)nc3C)Oc3cc(-c4cnc([C@@H]5CCCN5C(=O)[C@@H](NC(=O)OC)C(C)C)[nH]4)cc(F)c3-2)[nH]1)C1CCOC(C)(C)C1 (single isomer, unassigned) [Compound 435] | 2.8 | 0.181 | 3.8 | 0.618 | – | – | – | – | – | – |
| COC(=O)N[C@H](C(=O)N1CCC[C@H]1c1ncc(-c2cc(F)c3c(c2)OC(c2sc(C(C)C)nc2C)n2c-3cc3cc(-c4cnc([C@@H]5CCCN5C(=O)[C@@H](NC(=O)OC)C(C)C)[nH]4)ccc32)[nH]1)C(C)C (single isomer, unassigned) [Compound 516] | 1.7 | – | 2.6 | 3.22 | – | – | – | – | – | – |
| CCCc1ncc(C2Oc3cc(-c4cnc([C@@H]5CCCN5C(=O)[C@@H](NC(=O)OC)C(C)C)[nH]4)cc(F)c3-c3cc4cc(-c5cnc([C@@H]6CCCN6C(=O)C(NC(=O)OC)C6CCOC(C)(C)C6)[nH]5)ccc4n32)s1 (single isomer, unassigned) [Compound 60] | 4 | 0.184 | 4 | 0.4 | – | – | – | – | – | – |
| COC(=O)N[C@H](C(=O)N1CCC[C@H]1c1ncc(-c2cc(F)c3c(c2)OC(c2cnc(C4CC4)s2)n2c-3cc3cc(-c4cnc([C@@H]5CC6(C)CC6N5C(=O)[C@@H](NC(=O)OC)C(C)C)[nH]4)ccc32)[nH]1)C(C)C (single isomer, unassigned) [Compound 520] | 3.3 | – | 3.7 | – | – | – | – | – | 2.71 | – |
| COC(=O)NC(C(=O)N1CCC[C@H]1c1ncc(-c2ccc3c(c2)cc2n3C(c3cnc(C(C)(C)C)s3)Oc3cc(-c4cnc([C@@H]5CCCN5C(=O)[C@@H](NC(=O)OC)C(C)C)[nH]4)cc(F)c3-2)[nH]1)C1CCOC(C)(C)C1 (single isomer, unassigned) [Compound 316] | 1.1 | 0.012 | 4 | 0.0162 | – | – | – | – | – | – |
| COC(=O)NC(C(=O)N1CCC[C@H]1c1ncc(-c2ccc3c(c2)cc2n3C(c3cnc(C4(C)CC4)s3)Oc3cc(-c4cnc([C@@H]5CCCN5C(=O)[C@@H](NC(=O)OC)C(C)C)[nH]4)cc(F)c3-2)[nH]1)C1CCOC(C)(C)C1 (single isomer, unassigned) [Compound 459] | 2.3 | 0.083 | 3 | 0.296 | – | – | – | – | – | – |
| COC(=O)N[C@H](C(=O)N1CCC[C@H]1c1ncc(-c2cc(F)c3c(c2)OC(c2sc(C(C)C)nc2C)n2c-3cc3cc(-c4cnc([C@@H]5CCCN5C(=O)[C@@H](NC(=O)OC)C(C)C)[nH]4)ccc32)[nH]1)C(C)C (single isomer, unassigned) [Compound 515] | – | – | – | – | 1.3 | 1.84 | 2.9 | 4.45 | – | – |
| COC(=O)N[C@H](C(=O)N1CCC[C@H]1c1ncc(-c2cc(F)c3c(c2)OC(c2nc4c(s2)CCC4)n2c-3cc3cc(-c4cnc([C@@H]5CCCN5C(=O)[C@@H](NC(=O)OC)C(C)C)[nH]4)ccc32)[nH]1)C(C)C (single isomer, unassigned) [Compound 504] | – | 1.67 | – | 1.67 | 2.6 | – | 2.4 | – | – | – |
| COC(=O)N[C@H](C(=O)N1CCC[C@H]1c1ncc(-c2cc(F)c3c(c2)OC(c2csc(C4CC4)n2)n2c-3cc3cc(-c4cnc([C@@H]5CCCN5C(=O)[C@@H](NC(=O)OC)C(C)C)[nH]4)ccc32)[nH]1)C(C)C (single isomer, unassigned) [Compound 432] | – | 4 | – | 2.6 | 1 | – | 1 | – | – | – |
| COCc1ncc(C2Oc3cc(-c4cnc([C@@H]5CCCN5C(=O)[C@@H](NC(=O)OC)C(C)C)[nH]4)cc(F)c3-c3cc4cc(-c5cnc([C@@H]6CCCN6C(=O)[C@@H](NC(=O)OC)C(C)C)[nH]5)ccc4n32)s1 (single isomer, unassigned) [Compound 17] | – | 0.528 | – | 1.01 | 1.2 | – | 2 | – | – | – |
| COC(=O)N[C@H](C(=O)N1CCC[C@H]1c1ncc(-c2cc(F)c3c(c2)OC(c2cnc(C4(C)CCCC4)s2)n2c-3cc3cc(-c4cnc([C@@H]5C[C@H]6C[C@H]6N5C(=O)[C@@H](NC(=O)OC)C(C)C)[nH]4)ccc32)[nH]1)C(C)C (single isomer, unassigned) [Compound 455] | 1.7 | – | 3.4 | 0.981 | – | – | – | – | – | – |
| COC(=O)N[C@H](C(=O)N1CCC[C@H]1c1ncc(-c2cc(F)c3c(c2)OC(c2cnc(C4(C)CC4)s2)n2c-3cc3cc(-c4cnc([C@@H]5CCCN5C(=O)[C@@H](NC(=O)OC)C(C)C)[nH]4)ccc32)[nH]1)C(C)C (single isomer, unassigned) [Compound 512] | 8.5 | 0.783 | 3.9 | 0.347 | – | – | – | – | – | – |
| COC(=O)NC(C(=O)N1CCC[C@H]1c1ncc(-c2ccc3c(c2)cc2n3C(c3cnc(C4(C)CC4)s3)Oc3cc(-c4cnc([C@@H]5CCCN5C(=O)[C@@H](NC(=O)OC)C(C)C)[nH]4)cc(F)c3-2)[nH]1)C1CCOC(C)(C)C1 (single isomer, unassigned) [Compound 460] | 2.7 | 0.138 | 3.9 | 0.288 | – | – | – | – | – | – |
| COC(=O)N[C@H](C(=O)N1CCC[C@H]1c1ncc(-c2cc(F)c3c(c2)OC(c2cnc(CC4CC4)s2)n2c-3cc3cc(-c4cnc([C@@H]5CCCN5C(=O)[C@@H](NC(=O)OC)C(C)C)[nH]4)ccc32)[nH]1)C(C)C (single isomer, unassigned) [Compound 509] | 2 | – | 2.8 | – | – | – | – | – | 0.014 | 0.018 |
| COC(=O)NC(C(=O)N1CCC[C@H]1c1ncc(-c2ccc3c(c2)cc2n3C(c3cnc(C(C)(C)C)s3)Oc3cc(-c4cnc([C@@H]5CCCN5C(=O)[C@@H](NC(=O)OC)C(C)C)[nH]4)cc(F)c3-2)[nH]1)C1CCOC(C)(C)C1 (single isomer, unassigned) [Compound 315] | 2.7 | 0.004 | – | 0.0028 | – | – | 2 | – | – | – |
| COC(=O)NC(C(=O)N1[C@@H]2C[C@@H]2C[C@H]1c1ncc(-c2ccc3c(c2)cc2n3C(c3cnc(C4(C)CCCC4)s3)Oc3cc(-c4cnc([C@@H]5CCCN5C(=O)[C@@H](NC(=O)OC)C(C)C)[nH]4)cc(F)c3-2)[nH]1)C1CCOC(C)(C)C1 (single isomer, unassigned) [Compound 476] | 1.1 | 0.19 | 3.5 | 0.316 | – | – | – | – | – | – |
| COC(=O)N[C@H](C(=O)N1CCC[C@H]1c1ncc(-c2cc(F)c3c(c2)OC(c2cnc(-c4ccc(OC)cc4)s2)n2c-3cc3cc(-c4cnc([C@@H]5CCCN5C(=O)[C@@H](NC(=O)OC)C(C)C)[nH]4)ccc32)[nH]1)C(C)C (single isomer, unassigned) [Compound 46] | 1.8 | 0.252 | 1 | 0.534 | – | – | – | – | – | – |
| COC(=O)N[C@H](C(=O)N1CCC[C@H]1c1ncc(-c2cc(F)c3c(c2)OC(c2cnc(C(C)(C)C)s2)n2c-3cc3cc(-c4cnc([C@@H]5CCCN5C(=O)[C@@H](NC(=O)OC)C(C)C)[nH]4)ccc32)[nH]1)C(C)C (single isomer, unassigned) [Compound 303] | 2.6 | 0.942 | 3 | 0.0475 | – | – | – | – | – | – |
| CCCc1ncc(C2Oc3cc(-c4cnc([C@@H]5CCCN5C(=O)[C@@H](NC(=O)OC)C(C)C)[nH]4)cc(F)c3-c3cc4cc(-c5cnc([C@@H]6CCCN6C(=O)[C@@H](NC(=O)OC)C(C)C)[nH]5)ccc4n32)s1 (stereo partly drawn) [Compound 16] | 1.7 | 0.284 | 1 | 0.083 | – | – | – | – | – | – |
